Experimental findings from PubChem BioAssay (NCI) are described below.

Some test systems named below: LOX IMVI melanoma; MCF7 breast; HS 578T breast; IGROV1 ovarian; UO-31 renal; UACC-62 melanoma; MALME-3M melanoma; SNB-75 CNS; BT-549 breast; M14 melanoma.
What all share (assay): NCI-60 cell line screen, 48 h

Each structure is given as a SMILES string. “And” between values parts separate entries of the source, which are not always exact repeats. Identical values can stand only once.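 Assay format: 96-well plates, 48-hour exposure. GI50 = concentration required for 50% inhibition of growth. The concentration for full growth arrest is given as TGI.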

Regarding `CCCC[n+]1c(/C=C\c2c(OC)cc(OC)cc2OC)ccc2ccccc21`, the GI50 with LOX IMVI melanoma is 0.827 µM; in the experiment with MCF7 breast, 0.494 µM; in the experiment on HS 578T breast, 1.28 µM; with IGROV1 ovarian, 1.09 µM; with UO-31 renal, 2.22 µM; with UACC-62 melanoma it was 0.777 µM. For the same molecule, the GI50 in the experiment on MALME-3M melanoma is 0.362 µM; in the experiment on SNB-75 CNS, 1.57 µM; in the experiment with BT-549 breast, 0.738 µM; with M14 melanoma, 1.18 µM. The TGI in the experiment on LOX IMVI melanoma turned out to be 2.58 µM; in the experiment with MCF7 breast, 4.73 µM; in the experiment on HS 578T breast it was 8.64 µM; in the experiment on IGROV1 ovarian, 6.7 µM; with UO-31 renal it was 8.26 µM; in the experiment on UACC-62 melanoma, 2.34 µM. Moreover, the TGI in the experiment with MALME-3M melanoma stood at 2.07 µM; in the experiment with SNB-75 CNS, 8.21 µM; with BT-549 breast it was 3.19 µM; in the experiment on M14 melanoma, 2.81 µM.
Turning to `COc1cccc(-n2cc(-c3nc(Nc4cc(C)[nH]n4)c4ccccc4n3)nn2)c1`, the GI50 was 5.15 µM with LOX IMVI melanoma; 4.76 µM in the experiment on MCF7 breast; 2.6 µM with HS 578T breast; 1.69 µM in the experiment with IGROV1 ovarian; 0.187 µM in the experiment with UO-31 renal; 2.86 µM with UACC-62 melanoma. For the same molecule, the GI50 was 5.31 µM in the experiment on MALME-3M melanoma, 1.15 µM in the experiment on SNB-75 CNS, 7.04 µM with BT-549 breast and 1.1 µM in the experiment on M14 melanoma. In addition, the TGI in the experiment with LOX IMVI melanoma was determined as 12.3 µM; in the experiment with MCF7 breast it was 14 µM; with HS 578T breast, 16.5 µM; with IGROV1 ovarian, 10.1 µM; in the experiment on UO-31 renal, 5.39 µM; in the experiment with UACC-62 melanoma, 11.3 µM. Moreover, the TGI in the experiment on MALME-3M melanoma turned out to be 13.7 µM; in the experiment with SNB-75 CNS it was 7.9 µM; in the experiment with BT-549 breast, 13.5 µM; in the experiment on M14 melanoma it was 9.51 µM.
On to `O=c1c2cccc(F)c2sc2c(N3CCNCC3)nc3ccccc3c12`, for which the GI50 is 1.42 µM in the experiment with LOX IMVI melanoma; 1.17 µM in the experiment on MCF7 breast; 1.62 µM with HS 578T breast; 1.22 µM in the experiment on IGROV1 ovarian; 0.597 µM in the experiment on UO-31 renal; 1.66 µM in the experiment with UACC-62 melanoma. Also, the GI50 was 1.67 µM with MALME-3M melanoma, 1.16 µM with SNB-75 CNS, 1.58 µM with BT-549 breast and 1.71 µM in the experiment on M14 melanoma. In addition, the TGI in the experiment on LOX IMVI melanoma was 2.81 µM; in the experiment on MCF7 breast, 2.66 µM; in the experiment on HS 578T breast, 3.66 µM; in the experiment on IGROV1 ovarian, 2.55 µM; with UO-31 renal, 2.04 µM; in the experiment with UACC-62 melanoma it was 3.16 µM. The TGI in the experiment on MALME-3M melanoma is 3.07 µM; in the experiment with SNB-75 CNS, 2.41 µM; in the experiment with BT-549 breast, 3.06 µM; in the experiment with M14 melanoma, 3.17 µM.
Turning to `CC1(C)CCCC(C)(C2CCC3(C)C2C(O)CC2C4(C)CCC(O)C(C)(C)C4C(O)CC23C)O1` (centres undefined), the TGI in the experiment on LOX IMVI melanoma is greater than 100 µM; with MCF7 breast it was 29.3 µM; in the experiment with HS 578T breast, 30.8 µM; in the experiment with IGROV1 ovarian, 38.5 µM; in the experiment with UO-31 renal, 24.1 µM; with UACC-62 melanoma, 27.5 µM. In addition, the TGI with MALME-3M melanoma came out at 50.1 µM; in the experiment with SNB-75 CNS, 24.6 µM; in the experiment with BT-549 breast, 28.5 µM; with M14 melanoma it was 31.7 µM.
For the molecule `Cc1[nH]c(C(=O)Nc2ccccc2OC2CCNCC2)c(Cl)c1Cl`, the GI50 in the experiment with LOX IMVI melanoma was 0.882 µM; with MCF7 breast it was 0.882 µM; in the experiment with HS 578T breast it was 0.898 µM; in the experiment with IGROV1 ovarian, 0.856 µM; in the experiment on UO-31 renal, 0.656 µM; in the experiment with UACC-62 melanoma, 0.895 µM. Further, the GI50 was 0.809 µM in the experiment with MALME-3M melanoma, 0.56 µM with SNB-75 CNS, 0.895 µM in the experiment with BT-549 breast and 0.95 µM in the experiment on M14 melanoma. Moreover, the TGI in the experiment on LOX IMVI melanoma came to 1.61 µM; with MCF7 breast it was 1.68 µM; in the experiment with HS 578T breast, 1.9 µM; in the experiment on IGROV1 ovarian it was 1.73 µM; with UO-31 renal, 1.32 µM; in the experiment with UACC-62 melanoma, 1.6 µM. The TGI in the experiment with MALME-3M melanoma was 1.55 µM; with SNB-75 CNS, 1.19 µM; with BT-549 breast it was 1.7 µM; in the experiment with M14 melanoma it was 1.9 µM.
For the molecule `Cc1cc2nc3ccc(=[N+](C)C)cc-3sc2cc1N`, the GI50 in the experiment on LOX IMVI melanoma is 0.27 µM and 0.301 µM; with MCF7 breast, 0.326 µM and 0.405 µM; with HS 578T breast it was 1.49 µM and 0.311 µM; in the experiment with IGROV1 ovarian, 1.53 µM and 1.81 µM; in the experiment on UO-31 renal, 1.73 µM and 1.61 µM; with UACC-62 melanoma, 0.541 µM and 1.07 µM. The GI50 is 0.384 µM and 0.223 µM with MALME-3M melanoma; 1.43 µM and 1.34 µM in the experiment with SNB-75 CNS; 2.75 µM and 2.09 µM with BT-549 breast; 0.368 µM and 0.703 µM in the experiment on M14 melanoma. The TGI with LOX IMVI melanoma was 1.37 µM and 8.39 µM and 1.4 µM; with MCF7 breast, 1.87 µM and 6.05 µM and 2.79 µM; in the experiment on IGROV1 ovarian, 5.18 µM and 20.2 µM and 5.32 µM; in the experiment on UO-31 renal, 9.11 µM and 25.1 µM and 10.8 µM; in the experiment with UACC-62 melanoma it was 2.21 µM and 5.49 µM and 4.52 µM; in the experiment with MALME-3M melanoma it was 1.8 µM and 6.42 µM and 0.782 µM. In addition, the TGI in the experiment with SNB-75 CNS was 4.03 µM and 24.5 µM and 3.37 µM; in the experiment on BT-549 breast, 19.7 µM and 25.2 µM and 18.2 µM; in the experiment with M14 melanoma, 1.38 µM and 9.09 µM and 2.28 µM.
With `COC1=C(Br)C(O)C2(C=C1Br)CC(C(=O)NCCCCNC(=O)C1=NOC3(C=C(Br)C(OC)=C(Br)C3O)C1)=NO2` (centres undefined), the TGI in the experiment with LOX IMVI melanoma is 35.1 µM; in the experiment with MCF7 breast, 87.4 µM; with HS 578T breast, 46.9 µM; in the experiment on IGROV1 ovarian, 46.8 µM; with UO-31 renal, greater than 100 µM; in the experiment on UACC-62 melanoma, greater than 100 µM. Further, the TGI was 45.5 µM in the experiment on MALME-3M melanoma, 61.2 µM in the experiment with SNB-75 CNS, greater than 100 µM with BT-549 breast and 37 µM in the experiment with M14 melanoma.
As to `COc1ccc2c(Cc3c4ccccc4cc4ccccc34)cncc2c1O`, the TGI in the experiment on LOX IMVI melanoma is 8.5 µM; in the experiment on MCF7 breast, greater than 38.2 µM; in the experiment with HS 578T breast it was greater than 100 µM; in the experiment on IGROV1 ovarian, 11 µM; with UO-31 renal, 34.9 µM; in the experiment with UACC-62 melanoma it was greater than 44.2 µM. Moreover, the TGI in the experiment with MALME-3M melanoma stood at 55 µM; with SNB-75 CNS it was 29.4 µM; in the experiment with BT-549 breast it was 53.1 µM; in the experiment with M14 melanoma, 15.3 µM.
Regarding `C/C(=N\NC(=S)N1CCN(C2CCCCCC2)CC1)c1ccccn1`, the GI50 in the experiment with LOX IMVI melanoma was 0.0173 µM; with IGROV1 ovarian, less than 0.001 µM; with UO-31 renal, 1.35 µM; in the experiment with MALME-3M melanoma, 0.0382 µM; with M14 melanoma it was less than 0.001 µM. The TGI is 5.29 µM and 1.83 µM in the experiment on LOX IMVI melanoma; 2.05 µM with MCF7 breast; 4.63 µM in the experiment with HS 578T breast; 3.7 µM with IGROV1 ovarian; 3.75 µM and 1.5 µM in the experiment on UO-31 renal; 1.95 µM with UACC-62 melanoma. The TGI was 3.09 µM in the experiment with MALME-3M melanoma; 5.09 µM in the experiment on SNB-75 CNS; 2.78 µM with BT-549 breast; 2.85 µM and 1.2 µM in the experiment with M14 melanoma.
